The record followed here is patent publication US20080096909A1, “APOMORPHINE INHIBITORS OF AMYLOID-BETA (ABETA) FIBRIL FORMATION AND THEIR USE IN AMYLOIDOSIS BASED DISEASE” (priority 2001, published 2008).

Where a name gives a salt, the structure may show the parent alone.

Test [1] addresses T1, Aβ 1-40 (Homo sapiens, UniProt P05067). The experiment in a line: Electron microscopy of Aβ aggregates in the presence of inhibitor. It counts as biochemical. On the set-up: Amyloid-β (Aβ 1-40) was purchased from California Peptides (Lot # SF104); purchased California Peptides Lot # SF104. The following applies: for Protofibril assembly into fibrils when compound is added to pre-incubated Aβ (EM and sedimentation velocity): Aβ pre-incubated 18-20 hr at 37° C., then three to nine days with compound. The method, then:
Electron Microscopy. Electron microscopy was used to follow the changes in size and structural morphology of Aβ aggregates in the presence and absence of inhibitor at 37° C. as a function of time. EM samples were prepared by placing 5 μL of the Aβ solution on a carbon-coated grid and allowing the solution to stand for 2 min before removing excess solution. The grid was then washed once with distilled water and once with 1% uranyl acetate before staining the sample with fresh 1% uranyl acetate for another 2 min. The samples were then studied in a Phillips CM-100 electron microscope. The grids were thoroughly examined to get an overall statistical evaluation of the structures present in the sample. All electron micrographs were taken at 100 kV.

The target of test [2] is T1, Aβ 1-40. As to the kind of experiment: Thioflavin T (ThT) fluorescence assay for fibril formation. On the set-up: Amyloid-β (Aβ 1-40) was purchased from California Peptides (Lot # SF104); purchased California Peptides Lot # SF104. Particulars: for Thioflavin T signal after longer incubation: longer incubation at 37° C., some long fibrils formed; for Thioflavin T signal with sodium metabisulphite added: stock solutions containing 1% (v/v) sodium metabisulphite, 37° C., pH 7.4, 3 days. It counts as biochemical. The method, then:
Preparation of Stock Peptide Solutions for Fibrillization Studies. Stock solutions of the inhibitors were prepared by dissolving the compounds at a concentration of 5-7 mM in water or in 1-1.5% DMSO solutions (for compounds with reduced solubility). Amyloid-β (Aβ 1-40) was purchased from California Peptides (Lot # SF104). Aβ 1-40 stock solutions were prepared by dissolving purified and lyophilized peptide in cold double distilled water to yield stock solutions at a concentration of 2 mg/mL. The stock solutions were used within 10-30 minutes of dissolution. Samples for fibril formation assay were prepared by diluting the appropriate amount of Aβ stock with pH 7.4 Tris-HCl buffer (50 mM Tris, 150 mM NaCl) to afford a final peptide concentration of 100 μM. […] Analytical ultracentrifugation, and electron microscopy were periodically used to ensure that we start our experiments with a hydrodynamically defined Aβ monomer, and the absence of any preformed fibrils in solution.
Thioflavin T (ThT) Fluorescence Assay for Fibril Formation. Thioflavin T was purchased from Aldrich (70% purity) and was recrystallized from benzene/ethanol (1:1) to afford yellow crystals (36). Thioflavin T binding assays were performed by addition of 50 μL of 100 μM Aβ solutions, which were incubated at 37° C. in the absence and presence of inhibitors, to 450 μL solution of 10 μM Thioflavin T in phosphate buffer (10 mM phosphate, 100 mM KCl). The solutions were mixed and fluorescence measurements were recorded in Biosystems model spectrofluorimeter at 25° C. using a 1 cm path length quartz cell. An excitation slit width of 4 nm and an emission slit width of 8 nm were employed. The excitation wavelength was set to 450 nm and emission monitored from 460-630 nm. The relative fluorescence at 482 nm was plotted for each sample, and was used as a measure of the amount of fibrillar aggregates in solution.

For test [3], the target named is T1, Aβ 1-40. As to the kind of experiment: Sedimentation velocity of Aβ quaternary structures in the presence of inhibitors. It counts as biochemical. On the set-up: Amyloid-β (Aβ 1-40) was purchased from California Peptides (Lot # SF104); purchased California Peptides Lot # SF104. Particulars: for Amount of nonfibrillar assemblies (protofibrils) formed by Aβ alone relative to that obtained in the presence of compound: 20 hour incubation; for Sedimentation velocities, 20 h (average sedimentation coefficient): Aβ 1-40 100 μM + compound 100 μM, 37° C. The method, then: Probing the Mechanism of Amyloid Fibril Formation Inhibition using Sedimentation Velocity Experiments. To probe the mechanism by which apomorphine and its structural analogues inhibit Aβ fibril formation, sedimentation velocity was used to determine the distribution and molecular size of quaternary structures of Aβ in the presence and absence of inhibitors. Aβ samples (100 μM) in a pH 7.4 buffer (50 mM Tris-HCl, 150 mM NaCl) were incubated at 37° C. for 1-10 days in the presence and absence of inhibitors, then transferred to 25° C. for 1-3 hours before the sedimentation experiments were carried out at 20° C. The sedimentation properties of Aβ 1-40 in the absence and presence of inhibitors were obtained from data collected on a temperature controlled Beckman XL-1 using 400-420 μL of peptide solutions and data were recorded at rotor speeds of 3,000-30,000 rpm in continuous mode with a step size of 0.005 cm. The sedimentation velocity absorbance profiles were then analyzed using the time derivative (dc/dt) analysis program, which was provided by J. Philo, to obtain the sedimentation coefficient distribution g(*s) for all the quaternary structures in solution as described previously (37, 38).
Fitting of the g(*s) profiles allows for the determination of the sedimentation coefficient (peak position, with a unit of Svedberg, 1 S=10^−13 s) and the diffusion coefficient (from the peak width, with a unit of Fick, 1 F=[…]). This method has the advantage of allowing for the calculation of the molecular weight of the sedimenting species using equation II since s and D can be obtained from the fitting analysis. [formula]
In the cases where the diffusion coefficient cannot be determined accurately, the molecular weight of a spherical protein can still be estimated by combining the Svedberg equation and Stokes equation for the frictional coefficient to obtain equation III which utilizes the estimated sedimentation coefficient: [formula]
Sedimentation velocity was also used to determine the amount of soluble Aβ and Aβ monomer in solution after sedimentation of Aβ aggregates. […] The percent of monomeric species in solution was calculated using equation IV at 50,000 rpm and after complete sedimentation of Aβ high MW oligomeric species. Sedimentation equilibrium studies of the unsedimented species were carried out to determine whether a monomer, dimer or a mixture was present in solution. % of unsedimented Aβ=1−(Absorbance(290 nm, 3000 rpm)−Absorbance(290 nm, 20,000-30,000 rpm))×100 (IV)

The target in test [4] is T1, Aβ 1-40. The experiment in a line: Aβ 1-40 fibril formation inhibition judged by ThT, sedimentation velocity and electron microscopy. Particulars: Aβ 1-40 100 μM; for Effect on Aβ 1-40 fibril formation (ThT, sedimentation velocity, EM): pH 7.4, 37° C., 3 days.
[5] abbreviates: Aβ coincubated with D030, 11 days at 37° C.

T1 sequence (P05067 672-711): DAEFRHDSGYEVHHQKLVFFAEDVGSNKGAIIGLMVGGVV

As for `CCCN1CCc2cccc3c2[C@H]1Cc1ccc(O)c(O)c1-3.Cl` [D027, R(−)-Propylnorapomorphine hydrochloride], the “Protofibril assembly into fibrils when compound is added to pre-incubated Aβ (EM and sedimentation velocity)” value (from here on “Protofibril assembly into fibrils”) at Aβ 1-40 [1] is given as “no fibril formation”. The “Inhibition of Aβ fibril formation by EM, aged or freshly prepared stock solutions” value on Aβ 1-40 [1] (three to four days at 37° C.) is reported as “effective inhibition of Aβ fibril formation”. Further, at Aβ 1-40 [2], the “Thioflavin T signal after longer incubation” value is recorded as “did not exhibit any changes” and the “Thioflavin T signal with sodium metabisulphite added” value was “restoration of the ThT signal”. On Aβ 1-40 [3], the “Amount of nonfibrillar assemblies (protofibrils) formed by Aβ alone relative to that obtained in the presence of compound” value is reported as about 30% and the “Sedimentation velocities, 20 h (average sedimentation coefficient)” value (“Sedimentation velocities, 20 h” below) is on record as 33 S.
For the molecule `Br.CCCN1CCc2cc(O)cc3c2[C@H]1Cc1ccc(O)c(O)c1-3` [D029, R(−)-2,10,11-Trihydroxy-N-propylnorapomorphine hydrobromide], the “Protofibril assembly into fibrils” value at Aβ 1-40 [1] is “exhibited similar behavior”. On Aβ 1-40 [2], the “Thioflavin T signal after longer incubation” value is “did not exhibit any changes” and the “Thioflavin T signal with sodium metabisulphite added” value is “restoration of the ThT signal”. On Aβ 1-40 [3], the “Amount of nonfibrillar assemblies (protofibrils) formed by Aβ alone relative to that obtained in the presence of compound” value is listed as about 30% and the “Sedimentation velocities, 20 h” value stood at 35 S.
As to `Br.CN1CCc2cc(O)cc3c2[C@H]1Cc1ccc(O)c(O)c1-3` [D030, R(−)-2,10,11-Trihydroxyaporphine hydrobromide], the “Incubation period during which nonfibrillar assemblies remain the dominant species (EM and sedimentation velocity)” value at Aβ 1-40 [1] (37° C., incubation extended to nine days) was in the range of 1 to 3 days. Besides, on Aβ 1-40 [1] (Aβ 100 μM, pH 7.4, 9 days at 37° C.), the “Structures seen by EM after 9 days” value is on record as “accumulation of some long fibrils in solution”. Also, the “Structures seen by EM after 11 days” value on Aβ 1-40 [1] (setting [5]) is “significant amounts of fibrils in solution”. Moreover, the “Protofibril assembly into fibrils” value at Aβ 1-40 [1] was “least effective compound towards inhibiting protofibril assembly into fibrils”. Also, the “Thioflavin T signal after 11 days” value at Aβ 1-40 [2] (setting [5]) is on record as “did not show a ThT signal”. Moreover, on Aβ 1-40 [2], the “Thioflavin T signal after longer incubation” value is reported as “did not exhibit any changes” and the “Thioflavin T signal with sodium metabisulphite added” value is on record as “restoration of the ThT signal”. On Aβ 1-40 [3], the “Amount of nonfibrillar assemblies (protofibrils) formed by Aβ alone relative to that obtained in the presence of compound” value was about 30% and the “Sedimentation velocities, 20 h” value is listed as 33 S. Also, on Aβ 1-40 [4] (incubation period of three days), the “Concentration at which Aβ 1-40 fibril formation is inhibited” value was 100 µM.
Turning to `Br.Oc1ccc2c(c1O)-c1cccc3c1[C@@H](C2)NCC3` [D040, R(−)-Norapomorphine hydrobromide], the “Protofibril assembly into fibrils” value at Aβ 1-40 [1] is listed as “exhibited similar behavior”. Besides, on Aβ 1-40 [2], the “Thioflavin T signal after longer incubation” value was “did not exhibit any changes” and the “Thioflavin T signal with sodium metabisulphite added” value is “restoration of the ThT signal”. Besides, on Aβ 1-40 [3], the “Amount of nonfibrillar assemblies (protofibrils) formed by Aβ alone relative to that obtained in the presence of compound” value was about 30% and the “Sedimentation velocities, 20 h” value amounted to 31 S.
With `CCCN1CCc2cccc3c2[C@H]1Cc1ccc2c(c1-3)OCO2.Cl` [M121, R(−)-10,11-Methylenedioxy-N-n-propylnoraporphine hydrochloride], at Aβ 1-40 [4], the “Effect on Aβ 1-40 fibril formation (ThT, sedimentation velocity, EM)” value is “showed no effect”.
On the same count and under the same terms, with `COc1ccc2c(c1O)-c1cccc3c1[C@@H](C2)N(C)CC3.Cl` [R(−)-apocodeine, R(−)-Apocodeine hydrochloride] the entry was “showed no effect”; with `COc1ccc2c(c1O)-c1c3c(cc4c1[C@H](C2)N(C)CC4)OCO3` [bulbocapnine, Bulbocapnine hydrochloride], “showed no effect”; with `COc1ccc2c(c1O)-c1c(OC)c(OC)cc3c1[C@H](C2)N(C)CC3.Cl` [isocrydine, Isocrydine hydrochloride], “showed no effect”.
